Experimental data as given in PubChem BioAssay (NCI).
Several values for one entry are separate records, joined by “and”; a condition that tells them apart may be missing. Equal entries are not always repeated.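 Exposure lasted 48 hours, with cells grown in 96-well plates and compounds tested at five concentrations. GI50: concentration for 50% inhibition of growth. TGI denotes the concentration required for complete inhibition of growth.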

How the values were obtained:
Assay in all cases: NCI-60 cell line screen, 48 h
UACC-62 melanoma = test system: UACC-62 melanoma
MCF7 breast = test system: MCF7 breast
SW-620 colon = test system: SW-620 colon
SK-OV-3 ovarian = test system: SK-OV-3 ovarian
MDA-MB-231 breast = test system: MDA-MB-231 breast
KM12 colon = test system: KM12 colon
HL-60(TB) leukemia = test system: HL-60(TB) leukemia
SK-MEL-28 melanoma = test system: SK-MEL-28 melanoma
TK-10 renal = test system: TK-10 renal
786-0 renal = test system: 786-0 renal

Row | Compound | GI50 (UACC-62 melanoma) | TGI (UACC-62 melanoma) | GI50 (MCF7 breast) | TGI (MCF7 breast) | GI50 (SW-620 colon) | TGI (SW-620 colon) | GI50 (SK-OV-3 ovarian) | TGI (SK-OV-3 ovarian) | GI50 (MDA-MB-231 breast) | TGI (MDA-MB-231 breast) | GI50 (KM12 colon) | TGI (KM12 colon) | GI50 (HL-60(TB) leukemia) | TGI (HL-60(TB) leukemia) | GI50 (SK-MEL-28 melanoma) | TGI (SK-MEL-28 melanoma) | GI50 (TK-10 renal) | TGI (TK-10 renal) | GI50 (786-0 renal) | TGI (786-0 renal)
1 | CN1CCN(CC#Cc2cccc(C(=O)c3cnn(-c4ccc(F)cc4)c3N)c2)CC1 | > 25 µM | > 25 µM | > 25 µM | > 25 µM | > 25 µM | > 25 µM | > 25 µM | > 25 µM | > 25 µM | > 25 µM | > 25 µM | > 25 µM | 24.6 µM | > 25 µM | > 25 µM | > 25 µM | > 25 µM | > 25 µM | > 25 µM | > 25 µM
2 | Cc1ccn2c3c(c(C(=O)O)c2c1)C(=O)c1ccccc1C3=O | 2.44 µM | 9.13 µM | 6.52 µM | 97.2 µM | 15.1 µM | > 100 µM | > 100 µM | > 100 µM | 11.8 µM | > 100 µM | 9.31 µM | > 100 µM | > 100 µM | > 100 µM | 4.44 µM | > 100 µM | > 100 µM | > 100 µM | > 87.4 µM | > 100 µM
3 | Nc1n[nH]c2ccc([C@@H]3Nc4ccc5[nH]ncc5c4[C@H]4[C@H]5CCC(C5)[C@H]43)cc12 | 0.389 µM | > 61.1 µM | 0.363 µM | > 100 µM | 0.372 µM | > 100 µM | 0.823 µM | > 80.1 µM | 0.688 µM | 18.5 µM | 0.406 µM | 10.8 µM | 0.247 µM | 0.654 µM | 0.91 µM | > 76.3 µM | 8.25 µM | > 79.5 µM | 0.757 µM | 33.8 µM
4 | O=C(CCN1CCN(c2cnc3ccccc3n2)CC1)c1csc2ccccc12 | 49.5 µM | > 100 µM | 18.1 µM | 48.6 µM | 20.9 µM | 45.4 µM | > 100 µM | > 100 µM | 26 µM | 63 µM | 33.5 µM | > 100 µM | 35.2 µM | > 100 µM | 20 µM | 42.7 µM | 19.5 µM | 42.6 µM | 28.4 µM | 79.5 µM
5 | CCn1c(-c2nonc2N)nc2c(C#CCN)ncc(OCCCN)c21 | > 25 µM | > 25 µM | > 25 µM | > 25 µM | > 25 µM | > 25 µM | > 25 µM | > 25 µM | > 25 µM | > 25 µM | > 25 µM | > 25 µM | > 25 µM | > 25 µM | > 25 µM | > 25 µM | > 25 µM | > 25 µM | > 25 µM | > 25 µM
6 | COc1ccc(-c2nn(-c3cccc(Cl)c3)cc2C2CC(c3ccccc3)=NN2C(C)=O)cc1 (centres undefined) | 15.3 µM | > 100 µM | > 100 µM | > 100 µM | > 100 µM | > 100 µM | 6.85 µM | 43.2 µM | 7.99 µM | > 100 µM | > 100 µM | > 100 µM | > 100 µM | > 100 µM | 6.16 µM | > 100 µM | 5 µM | 21.6 µM | 6.87 µM | 97.2 µM
7 | C[C@@H]1CC[C@H]2C(COCC3=C(C(F)(F)F)O[C@@H]4O[C@@]5(C)CC[C@H]6[C@H](C)CC[C@@H]3[C@@]46OO5)=C(C(F)(F)F)O[C@@H]3O[C@@]4(C)CC[C@@H]1[C@]32OO4 | 0.0609 µM | > 100 µM | < 0.01 µM | > 100 µM | < 0.01 µM | > 100 µM | > 100 µM | > 100 µM | 0.037 µM | > 100 µM | < 0.01 µM | > 100 µM | < 0.01 µM | > 100 µM |  | > 100 µM | 0.143 µM | > 100 µM | 0.182 µM | > 100 µM
8 | COc1ccc(NC(=O)Nc2n[nH]c3ccccc23)cc1 | > 100 µM | > 100 µM | > 100 µM | > 100 µM | > 100 µM | > 100 µM | > 100 µM | > 100 µM | > 100 µM | > 100 µM | > 100 µM | > 100 µM | > 100 µM | > 100 µM | > 100 µM | > 100 µM | > 100 µM | > 100 µM | > 100 µM | > 100 µM
9 | CCCCCCCCCCCCCC(=S)NCCCC[C@H](NC(=O)OCc1ccccc1)C(=O)Nc1ccccc1 | 3.51 µM | > 100 µM | 4.4 µM | > 100 µM | 4.12 µM | > 100 µM | 21.7 µM | > 100 µM | 5.53 µM | > 100 µM | 4.33 µM | > 100 µM | 3.89 µM | > 100 µM | 7.99 µM | > 100 µM | 4.4 µM | > 100 µM | 5.43 µM | > 100 µM
10 | CC(C)(C)OC(=O)NC(Cc1ccccc1)C(=O)OCN1C(=O)C2C3C=CC(C2C1=O)C1C2C(=O)N(COC(=O)C(Cc4ccccc4)NC(=O)OC(C)(C)C)C(=O)C2C31 (centres undefined) |  | > 100 µM |  | > 100 µM |  | > 100 µM |  | > 95.5 µM |  | > 94.2 µM |  | > 100 µM |  | > 57.5 µM |  | > 100 µM |  | > 91.2 µM |  | > 100 µM
11 | CC(=O)Nc1cccc(-n2c(=O)n(C3CC3)c(=O)c3c(Nc4ccc(I)cc4F)n(C)c(=O)c(C)c32)c1 | < 0.01 µM and 0.00184 µM | 0.0182 µM | 12.1 µM and > 8.55 µM | > 69.5 µM | < 0.01 µM and 0.00622 µM | > 48.8 µM | 8.58 µM | > 85.4 µM | 0.0345 µM | 14 µM and > 10 µM | 0.0102 µM and 0.0225 µM | > 53.7 µM | < 0.01 µM and 0.00141 µM | > 41.7 µM | < 0.01 µM and 0.0018 µM |  | < 0.0144 µM and 0.00977 µM | 20.7 µM and > 10 µM | 4.02 µM and > 7.71 µM | > 57.7 µM
12 | COc1cc(-n2cc(-c3ccc(Cl)c(Cl)c3)nc2SCc2ccccc2)cc(OC)c1OC | > 100 µM | > 100 µM | > 100 µM | > 100 µM | > 100 µM | > 100 µM | > 100 µM | > 100 µM | > 100 µM | > 100 µM | > 100 µM | > 100 µM | > 100 µM | > 100 µM | > 100 µM | > 100 µM | > 100 µM | > 100 µM | > 100 µM | > 100 µM
13 | CC(C)(C)c1cc(O)c(O)c(C(C)(C)C)c1 | 2.54 µM | 7.78 µM | 3.45 µM | 12.8 µM | 1.8 µM | 3.23 µM | 10.3 µM | 22.6 µM | 8.55 µM | 23.2 µM | 5.57 µM | 16.9 µM | 2.69 µM | 6.8 µM | 3 µM | 10.7 µM | 3.08 µM | 7.4 µM | 4.6 µM | 16.2 µM
14 | O=C(Nc1cccc(-n2ccc3c(NC(=O)c4ccccc4)nccc32)c1)c1cccc(C(F)(F)F)c1 | 0.0386 µM | 6.91 µM | 0.0362 µM |  | 0.0411 µM | 13.4 µM | 0.0331 µM | 15.1 µM | 0.0533 µM | 1.29 µM | 0.0341 µM | 1.4 µM | 0.0343 µM | 0.653 µM | 0.0558 µM | 4.04 µM | 0.103 µM | 19.4 µM | 0.0645 µM | 1.9 µM
15 | Oc1ccccc1/C=N/Nc1ccc2ccccc2n1 | 3.17 µM | > 100 µM | 4.92 µM | 91.5 µM | 4.64 µM | > 100 µM | 9.69 µM | > 100 µM | 3.35 µM | > 100 µM | 3.24 µM | > 100 µM | 2.44 µM | > 100 µM | 11.8 µM | > 100 µM | 7.69 µM | 77.5 µM | 5.81 µM | > 100 µM
16 | CN=C(N)N/N=C(\c1ccccc1)c1ccc(Br)cc1 | 0.859 µM | 9.16 µM | 0.268 µM | 8.33 µM | 0.417 µM | 16.3 µM | 0.462 µM | 12.3 µM | 0.358 µM | 2.09 µM | 0.334 µM | 4.4 µM | 0.216 µM | 0.567 µM | 0.844 µM | 5.38 µM | 0.709 µM | 8.47 µM | 0.523 µM | 4.91 µM
17 | COC(=O)C(=O)CC(=O)CCn1ncc(Cl)c(Cl)c1=O |  | 25.8 µM | 15.6 µM | > 100 µM |  | 13.3 µM |  | 40.8 µM | 7.88 µM | 20.7 µM |  | > 74.5 µM |  | 9.68 µM |  | 21.9 µM |  | > 85.5 µM |  | 43.6 µM
18 | C[C@@H]1CC[C@@H]2[C@@H]1[C@H](OC(=O)/C=C/c1ccccc1)[C@]1(c3ccccc3)C[C@@H](OC(=O)CO)[C@@]2(C)O1 | 14.5 µM | 33.3 µM | 9.19 µM | 26.5 µM | 19.1 µM | 42.6 µM | 23.4 µM | 55.6 µM | 16.5 µM | 34.2 µM | 15.2 µM | 38.1 µM | 14.9 µM | 53.9 µM | 16.3 µM | 33.4 µM | 18.2 µM | 41.8 µM | 11.7 µM | 29.3 µM
